Source: PubChem BioAssay (NCI)
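96-well plates; 48 h exposure; 5 concentrations. Endpoints by linear interpolation between flanking doses. Not reached: highest tested concentration assigned. At the GI50, growth is halved. TGI marks complete inhibition of growth.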

Legend:
Assay in all cases: NCI anticancer screen, dose series, 48 h
OVCAR-5 ovarian = test system: OVCAR-5 ovarian
LOX IMVI melanoma = test system: LOX IMVI melanoma
BT-549 breast = test system: BT-549 breast
KM12 colon = test system: KM12 colon
RPMI-8226 leukemia = test system: RPMI-8226 leukemia
SN12C renal = test system: SN12C renal
NCI/ADR-RES ovarian = test system: NCI/ADR-RES ovarian
MDA-MB-231 breast = test system: MDA-MB-231 breast
NCI-H23 lung = test system: NCI-H23 lung
COLO 205 colon = test system: COLO 205 colon
786-0 renal = test system: 786-0 renal

Structure (SMILES)	TGI (OVCAR-5 ovarian) [µM]	TGI (LOX IMVI melanoma) [µM]	TGI (BT-549 breast) [µM]	TGI (KM12 colon) [µM]	TGI (RPMI-8226 leukemia) [µM]	TGI (SN12C renal) [µM]	TGI (NCI/ADR-RES ovarian) [µM]	TGI (MDA-MB-231 breast) [µM]	TGI (NCI-H23 lung) [µM]	TGI (COLO 205 colon) [µM]	TGI (786-0 renal) [µM]	GI50 (OVCAR-5 ovarian) [µM]	GI50 (LOX IMVI melanoma) [µM]	GI50 (KM12 colon) [µM]	GI50 (RPMI-8226 leukemia) [µM]	GI50 (NCI/ADR-RES ovarian) [µM]	GI50 (MDA-MB-231 breast) [µM]	GI50 (NCI-H23 lung) [µM]	GI50 (COLO 205 colon) [µM]	GI50 (SN12C renal) [µM]
O=[N+]([O-])c1ccc(/C=N/Nc2nc3ccccc3[nH]2)o1	49.8	35	31.1	24.1	15.3	32.6	> 100	70.9	43.6	23	> 100									
O=C1c2cc(O)c(O)cc2O[C@H](c2ccc(O)c(O)c2)[C@H]1O	> 100	> 100	> 100	> 100	> 100	> 100	> 100	> 100	> 100	> 100	> 100									
Oc1ccc(C(=C(Br)c2ccccc2)c2ccc(O)cc2)cc1	31.2	17	15.4	13.5	96.1	18.9	12.6	24	23.7											
CN1C(=O)CC(=O)N1/C(=C/c1ccccc1)c1ccccc1	> 100	31.2	> 100	> 100	> 100	> 100	> 100	79.4	> 100	> 100										
O=C1c2cc3c(cc2-c2c1c1ccc(Cl)cc1c(=O)n2C[C@H](O)CO)OCO3	1.15	0.0781		0.618	0.54		1.12	1.97	0.714	10.1		0.119	0.0122	0.113	0.0429	0.0322	0.32	0.0366	0.0954	
COC(=O)c1cc2c(cc1Cl)Sc1nnc(Nc3ccccc3)n1S2(=O)=O	21.4	93.6	14.5	8.11	4.02	21.8	27.4	17.7	6.71	19.5	16.4									
O=C1c2ccccc2C(=O)c2[nH]cnc21				> 100		> 100			> 100		> 100									
O=C(CSCC(=O)N/N=C/c1cccc(O)c1)N/N=C/c1cccc(O)c1	> 100			> 100	> 100	> 100	> 100	> 100	> 100	> 100	> 100									
Cc1ccc(S(=O)(=O)N(CC(O)COc2ccccc2)c2c(F)cccc2F)cc1 (stereo not given)	> 100	28.5		56.3	34	47.8	43.1	43.8	44.8	27.9	42.1									
CC(SC(=S)N1CCOCC1)C(=O)Nc1nnc(-c2ccc(Cl)cc2)o1 (stereo not given)	> 100	> 100	> 100		66.3	> 100	> 100	> 100	> 100	> 100	> 100									
O=c1[nH]c2[nH]c(=S)[nH]c(=S)c2[nH]1	> 100	> 100	> 100	> 100	> 100	> 100	> 100	> 100	> 100		> 100									
COc1ccc2nc3c(c(N)c2c1)C1CCC3C1(C)C (stereo not given)	> 100	> 100	> 100	> 100	58.7	> 100	> 100	68.3	> 100	36.2	59.2									
COc1ccc(OC)c2sc(N3C(=O)/C(=C/c4cccc(Oc5ccccc5)c4)N=C3c3ccccc3)nc12	> 100	> 100	> 100	> 100	> 100	> 100	> 100	> 100	> 100	> 100	> 100									
O=C1C(Cl)N(c2ccccc2Cl)C1c1c[nH]c2ccccc12 (stereo not given)				> 100	> 100	> 100			> 100	> 100										
Cc1ccc(S(=O)(=O)OC2CC(C(C)(C)C)CCC2c2ccccc2)cc1 (stereo not given)	> 100	> 100	> 100	> 100	> 100	> 100	> 100	> 100	> 100	> 100	> 100									
CCOC(=O)c1c2c(n(-c3ccc(C)cc3)c1C)-c1ccccc1C(=O)C2(C(=O)OCC)C(=O)OCC	> 100	> 84.5	55.2	> 100	57.5	> 100	> 85.3	> 100	> 100	> 100	> 100									
C=C(C#N)C(=O)OCC(CC)CC.C=C(C#N)C(=O)OCC(CC)CC.CS(C)=O.CS(C)=O.Nc1c(N=Nc2ccc(-c3ccc(N=Nc4cc(S(=O)(=O)[O-])c5ccccc5c4N)cc3)cc2)cc(S(=O)(=O)[O-])c2ccccc12.[Pt+2]	> 100	> 84.9		> 100	> 80.8	> 100	91.7		> 100	45.6		> 78.4	35	46.6	26.9	34		40.7	22.3	57.7
COc1ccc2nc3cc(Cl)ccc3c(NC(C)CCCN(CCCl)CCCl)c2c1 (stereo not given)	8	1.17		4.6	2.93	8.66			2.89	2.15	3.87									
CSCCC(C(=O)O)N(C)C (stereo not given)	> 100	> 100	> 100	> 100	> 100	> 100	> 100	> 100	> 100	> 100	> 100									
